As usually defined, the inhibition is the change of the read-out against control, counted positive when it falls. A word on the Inhibition: it is the change of the read-out against control, counted positive when it falls. As usually defined, the pKd is −log10 of the Kd, conventionally taken in molar units. A higher pKd goes with a small Kd.

Experimental findings from paper PMC7714403 (JCI Insight, 2020) are described below.

pKd: −log10 of the molar value. Read-outs that look alike come from different tables or passages of the source.

For one test, the target named is AGK (Homo sapiens, UniProt Q53H12). Kind of test: KiNativ, OCI cells live cell. It counts as cell-based. To be noted: 2 h, labeling site ATP, peptide […].
Chain of AGK (Q53H12 whole entry): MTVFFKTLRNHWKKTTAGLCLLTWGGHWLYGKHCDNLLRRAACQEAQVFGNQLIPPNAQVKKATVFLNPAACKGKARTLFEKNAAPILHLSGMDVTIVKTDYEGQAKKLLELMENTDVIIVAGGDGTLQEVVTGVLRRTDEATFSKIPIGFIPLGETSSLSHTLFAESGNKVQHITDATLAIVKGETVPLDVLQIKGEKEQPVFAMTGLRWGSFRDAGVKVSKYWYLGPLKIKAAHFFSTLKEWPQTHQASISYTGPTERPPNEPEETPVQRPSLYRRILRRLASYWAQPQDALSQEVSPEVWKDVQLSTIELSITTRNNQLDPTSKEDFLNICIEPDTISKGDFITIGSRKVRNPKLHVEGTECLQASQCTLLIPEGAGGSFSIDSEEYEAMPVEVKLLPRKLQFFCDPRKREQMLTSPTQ
The target in the next test is AKT1 (Homo sapiens, UniProt P31749). Kind of test: KiNativ, OCI cells live cell. It counts as cell-based. The settings on record: 2 h, labeling site ATP Loop, peptide […].
Chain of AKT1 (P31749 whole entry): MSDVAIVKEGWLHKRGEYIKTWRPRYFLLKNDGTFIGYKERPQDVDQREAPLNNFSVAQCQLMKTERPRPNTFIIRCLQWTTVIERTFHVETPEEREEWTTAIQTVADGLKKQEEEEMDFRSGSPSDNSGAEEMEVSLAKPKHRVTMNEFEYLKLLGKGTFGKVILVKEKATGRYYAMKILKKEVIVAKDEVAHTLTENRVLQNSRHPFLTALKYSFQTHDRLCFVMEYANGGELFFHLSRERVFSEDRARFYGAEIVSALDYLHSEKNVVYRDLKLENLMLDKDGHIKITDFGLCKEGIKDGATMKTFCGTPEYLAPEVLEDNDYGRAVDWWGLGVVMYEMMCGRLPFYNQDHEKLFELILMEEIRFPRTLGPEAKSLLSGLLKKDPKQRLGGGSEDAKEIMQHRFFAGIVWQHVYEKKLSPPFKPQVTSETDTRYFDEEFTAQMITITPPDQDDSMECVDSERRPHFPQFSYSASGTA
For the next test, the target named is SBK (Homo sapiens, UniProt Q52WX2). Kind of test: KiNativ, OCI cells live cell. It counts as cell-based. To be noted: 2 h, labeling site Lys2, peptide […].
The next test deals with SRPK1, SRPK2. Kind of test: KiNativ, OCI cells live cell. It counts as cell-based, human. The settings on record: labeling site Lys1, peptide FVAMKVVK
For a further test, the target named is CaMK1a (Homo sapiens, UniProt Q14012). In words: KiNativ, OCI cells live cell. The settings on record: 2 h. It counts as cell-based.
Chain of CaMK1a (Q14012 whole entry): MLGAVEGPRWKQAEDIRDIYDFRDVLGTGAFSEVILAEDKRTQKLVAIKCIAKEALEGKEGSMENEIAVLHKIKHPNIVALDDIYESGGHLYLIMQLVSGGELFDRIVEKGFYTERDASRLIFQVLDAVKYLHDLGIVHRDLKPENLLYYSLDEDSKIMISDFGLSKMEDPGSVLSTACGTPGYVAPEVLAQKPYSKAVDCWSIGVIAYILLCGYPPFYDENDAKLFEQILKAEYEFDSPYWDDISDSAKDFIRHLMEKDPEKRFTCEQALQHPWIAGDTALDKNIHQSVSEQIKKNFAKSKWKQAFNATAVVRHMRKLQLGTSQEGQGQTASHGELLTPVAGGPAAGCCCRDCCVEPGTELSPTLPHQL
The target in another test is NEK4 (Homo sapiens, UniProt P51957). In words: KiNativ, OCI cells live cell. In kind it is cell-based. To be noted: 2 h, labeling site Lys2, peptide […].
Chain of NEK4 (P51957 whole entry): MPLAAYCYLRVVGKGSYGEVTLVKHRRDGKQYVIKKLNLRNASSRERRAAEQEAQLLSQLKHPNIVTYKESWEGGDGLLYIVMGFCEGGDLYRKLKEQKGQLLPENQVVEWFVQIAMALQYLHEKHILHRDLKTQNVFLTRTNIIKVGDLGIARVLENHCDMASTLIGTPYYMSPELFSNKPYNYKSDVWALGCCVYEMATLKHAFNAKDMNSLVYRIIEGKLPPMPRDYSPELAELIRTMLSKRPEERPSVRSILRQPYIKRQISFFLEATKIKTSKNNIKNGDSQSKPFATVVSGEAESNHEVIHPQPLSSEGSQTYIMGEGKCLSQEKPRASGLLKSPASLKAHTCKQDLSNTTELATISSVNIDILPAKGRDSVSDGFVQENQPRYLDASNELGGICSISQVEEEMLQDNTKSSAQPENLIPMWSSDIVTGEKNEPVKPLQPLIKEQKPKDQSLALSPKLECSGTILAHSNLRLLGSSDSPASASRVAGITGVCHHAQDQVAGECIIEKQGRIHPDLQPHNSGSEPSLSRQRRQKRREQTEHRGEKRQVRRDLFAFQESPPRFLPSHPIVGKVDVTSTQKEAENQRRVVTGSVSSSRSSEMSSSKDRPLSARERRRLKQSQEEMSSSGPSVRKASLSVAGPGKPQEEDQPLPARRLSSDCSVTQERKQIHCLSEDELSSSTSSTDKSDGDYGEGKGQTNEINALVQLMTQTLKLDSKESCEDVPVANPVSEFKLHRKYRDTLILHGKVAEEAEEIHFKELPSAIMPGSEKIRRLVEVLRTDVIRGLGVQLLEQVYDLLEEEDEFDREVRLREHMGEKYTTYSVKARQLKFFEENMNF
A further test deals with MARK3 (Homo sapiens, UniProt P27448). In words: KiNativ, OCI cells live cell. It counts as cell-based. To be noted: 2 h, labeling site Lys1, peptide […].
Chain of MARK3 (P27448 whole entry): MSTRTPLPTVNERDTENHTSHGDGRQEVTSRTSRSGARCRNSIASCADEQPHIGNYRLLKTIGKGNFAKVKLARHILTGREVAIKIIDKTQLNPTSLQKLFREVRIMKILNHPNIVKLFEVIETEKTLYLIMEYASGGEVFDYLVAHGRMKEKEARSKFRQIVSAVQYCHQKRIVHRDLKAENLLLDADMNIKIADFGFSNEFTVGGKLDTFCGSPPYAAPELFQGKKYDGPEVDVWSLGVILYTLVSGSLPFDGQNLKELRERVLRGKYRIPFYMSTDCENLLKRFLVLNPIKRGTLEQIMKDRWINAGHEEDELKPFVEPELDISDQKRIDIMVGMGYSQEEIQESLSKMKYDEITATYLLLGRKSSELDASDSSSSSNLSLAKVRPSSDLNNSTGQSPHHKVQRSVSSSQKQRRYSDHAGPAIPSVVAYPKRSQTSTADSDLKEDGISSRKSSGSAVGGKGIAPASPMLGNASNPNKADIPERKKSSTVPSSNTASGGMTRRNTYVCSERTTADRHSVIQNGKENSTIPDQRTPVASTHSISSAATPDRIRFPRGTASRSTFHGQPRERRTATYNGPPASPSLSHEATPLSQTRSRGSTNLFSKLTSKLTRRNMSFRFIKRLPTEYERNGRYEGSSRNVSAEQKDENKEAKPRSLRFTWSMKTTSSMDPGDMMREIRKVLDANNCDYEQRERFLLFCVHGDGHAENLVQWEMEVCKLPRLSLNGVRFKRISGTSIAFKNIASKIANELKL
The target of the next test is FLT3 ITD/D835V (Homo sapiens, UniProt P36888, D835V/ITD). Kind of test: KdELECT binding assay.
The target in a further test is CDK7 (Homo sapiens, UniProt P50613). Kind of test: KdELECT binding assay. Set-up: purchased Eurofins DiscoverX.
Chain of CDK7 (P50613 whole entry): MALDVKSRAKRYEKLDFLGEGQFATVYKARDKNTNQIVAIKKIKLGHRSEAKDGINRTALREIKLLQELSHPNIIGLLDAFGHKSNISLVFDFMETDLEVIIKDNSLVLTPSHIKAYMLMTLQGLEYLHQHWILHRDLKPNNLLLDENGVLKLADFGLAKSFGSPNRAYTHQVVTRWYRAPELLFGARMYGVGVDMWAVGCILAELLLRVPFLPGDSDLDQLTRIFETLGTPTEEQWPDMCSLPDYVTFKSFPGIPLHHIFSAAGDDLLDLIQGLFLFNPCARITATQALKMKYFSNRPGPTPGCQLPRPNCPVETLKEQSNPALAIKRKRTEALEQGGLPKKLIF
The target in a further test is T1, MAP2K6 (Homo sapiens, UniProt P52564).
T1 sequence (P52564 1-334): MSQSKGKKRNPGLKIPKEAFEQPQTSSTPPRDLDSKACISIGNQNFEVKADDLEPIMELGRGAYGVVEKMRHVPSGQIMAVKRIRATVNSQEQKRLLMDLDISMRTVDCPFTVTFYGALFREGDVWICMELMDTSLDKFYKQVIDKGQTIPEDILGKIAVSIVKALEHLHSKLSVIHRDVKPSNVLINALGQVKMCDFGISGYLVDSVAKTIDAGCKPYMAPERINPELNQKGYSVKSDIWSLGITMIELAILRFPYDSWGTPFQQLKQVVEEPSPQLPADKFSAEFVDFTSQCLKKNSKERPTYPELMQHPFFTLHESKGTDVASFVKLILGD
In words: KiNativ, OCI cells live cell. To be noted: 2 h. It counts as cell-based.

In another test the target is ZAK (Homo sapiens, UniProt Q9NYL2). Kind of test: KiNativ, OCI cells live cell. In kind it is cell-based. The settings on record: 2 h, labeling site Lys1, peptide […].
Chain of ZAK (Q9NYL2 whole entry): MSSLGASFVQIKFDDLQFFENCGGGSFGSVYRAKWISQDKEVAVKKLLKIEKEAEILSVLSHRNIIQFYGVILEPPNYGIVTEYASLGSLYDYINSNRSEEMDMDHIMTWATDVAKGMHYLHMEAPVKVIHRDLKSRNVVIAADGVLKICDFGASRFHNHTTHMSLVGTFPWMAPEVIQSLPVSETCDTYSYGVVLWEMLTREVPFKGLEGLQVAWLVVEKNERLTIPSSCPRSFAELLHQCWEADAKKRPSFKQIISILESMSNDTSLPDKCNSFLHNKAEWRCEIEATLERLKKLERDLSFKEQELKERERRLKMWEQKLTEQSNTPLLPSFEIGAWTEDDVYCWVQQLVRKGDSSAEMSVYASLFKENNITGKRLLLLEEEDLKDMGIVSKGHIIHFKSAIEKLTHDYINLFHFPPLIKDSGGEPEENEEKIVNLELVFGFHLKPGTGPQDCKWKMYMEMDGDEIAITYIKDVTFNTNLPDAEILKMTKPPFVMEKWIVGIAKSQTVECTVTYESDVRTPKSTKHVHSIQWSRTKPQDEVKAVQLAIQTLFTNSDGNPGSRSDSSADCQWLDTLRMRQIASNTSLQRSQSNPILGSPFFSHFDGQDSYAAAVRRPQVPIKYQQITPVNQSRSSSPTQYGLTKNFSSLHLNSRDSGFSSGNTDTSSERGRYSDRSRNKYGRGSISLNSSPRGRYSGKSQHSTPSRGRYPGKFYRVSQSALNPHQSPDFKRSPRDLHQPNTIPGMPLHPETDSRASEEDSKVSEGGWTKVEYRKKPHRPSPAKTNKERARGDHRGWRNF
Another test has as its target PI4KA (Homo sapiens, UniProt P42356). Kind of test: KiNativ, OCI cells live cell. It counts as cell-based. To be noted: 2 h, labeling site ATP, peptide […].
A further test deals with T2, NEK9 (Homo sapiens, UniProt Q8TD19).
T2 sequence (Q8TD19 1-979): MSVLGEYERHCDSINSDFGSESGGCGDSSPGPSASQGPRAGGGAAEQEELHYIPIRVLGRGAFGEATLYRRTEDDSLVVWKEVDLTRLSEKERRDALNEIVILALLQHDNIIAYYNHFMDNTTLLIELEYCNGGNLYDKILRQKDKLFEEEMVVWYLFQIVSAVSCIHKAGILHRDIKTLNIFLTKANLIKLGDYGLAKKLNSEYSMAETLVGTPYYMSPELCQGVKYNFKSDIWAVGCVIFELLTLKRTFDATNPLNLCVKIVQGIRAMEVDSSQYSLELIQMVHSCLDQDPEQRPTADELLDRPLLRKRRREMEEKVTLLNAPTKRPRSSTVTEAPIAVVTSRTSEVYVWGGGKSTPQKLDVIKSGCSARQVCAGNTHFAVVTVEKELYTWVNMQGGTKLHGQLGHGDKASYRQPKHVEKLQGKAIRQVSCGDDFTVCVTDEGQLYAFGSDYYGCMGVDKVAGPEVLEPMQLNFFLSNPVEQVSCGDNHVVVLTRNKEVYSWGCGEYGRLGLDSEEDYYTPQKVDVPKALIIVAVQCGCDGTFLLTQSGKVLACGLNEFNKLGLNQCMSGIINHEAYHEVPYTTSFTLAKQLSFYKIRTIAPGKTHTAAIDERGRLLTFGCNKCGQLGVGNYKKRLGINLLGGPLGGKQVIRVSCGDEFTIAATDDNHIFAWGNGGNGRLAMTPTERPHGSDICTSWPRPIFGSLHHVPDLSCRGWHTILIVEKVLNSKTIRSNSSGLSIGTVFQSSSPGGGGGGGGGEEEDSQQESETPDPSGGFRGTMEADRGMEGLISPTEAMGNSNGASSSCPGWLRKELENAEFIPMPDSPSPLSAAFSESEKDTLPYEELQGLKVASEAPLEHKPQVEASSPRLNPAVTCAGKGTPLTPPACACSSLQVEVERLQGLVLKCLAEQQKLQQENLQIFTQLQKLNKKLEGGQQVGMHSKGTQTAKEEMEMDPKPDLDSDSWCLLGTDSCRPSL
Kind of test: KiNativ, OCI cells live cell. In kind it is cell-based. To be noted: 2 h.

A further test relates to OCI-AML3 cells. In words: Apoptosis assay (annexin V). It counts as cell-based, human. To be noted: 20–50 nM, 72 hours. The method, then: Apoptosis and CD11b expression assays
At indicated time points, cells were collected and washed with PBS. CD11b expression was measured using anti-CD11b -APC antibody (BioLegend, San Diego, CA). Each sample was suspended in 100uL of FACS buffer (PBS + 4% FBS) with 1uL of antibody, incubated on ice for 15 minutes in the dark and washed once in PBS. DAPI (final concentration 1ug/mL [ThermoFisher Scientific]) was added to each sample as a viability dye. For apoptosis assay, cells were incubated with annexin V-APC (BioLegend) according to manufacturer’s instructions. CD11b expression and apoptosis were measured by BD LSR II flow cytometer. Two-color cytometry was performed, and data were […]
points, cells were collected and washed with 0.1% EDTA PBS (Ricca Chemical Company, Arlington, TX) followed by only PBS. Cells were then fixed on ice with ice-cold 70% ethanol for 30 minutes . Cells were either stored at -20°C for up to 1 month or processed immediately. Cells were spun down at 450 x g for 10 minutes and stained

The next test has as its target T3, AURKB (Homo sapiens, UniProt Q96GD4).
T3 construct: purchased Eurofins DiscoverX
In words: KdELECT binding assay.

The next test deals with FAM20B (Homo sapiens, UniProt O75063). In words: KiNativ, OCI cells live cell. In kind it is cell-based. To be noted: 2 h, labeling site ATP, peptide […].
Chain of FAM20B (O75063 whole entry): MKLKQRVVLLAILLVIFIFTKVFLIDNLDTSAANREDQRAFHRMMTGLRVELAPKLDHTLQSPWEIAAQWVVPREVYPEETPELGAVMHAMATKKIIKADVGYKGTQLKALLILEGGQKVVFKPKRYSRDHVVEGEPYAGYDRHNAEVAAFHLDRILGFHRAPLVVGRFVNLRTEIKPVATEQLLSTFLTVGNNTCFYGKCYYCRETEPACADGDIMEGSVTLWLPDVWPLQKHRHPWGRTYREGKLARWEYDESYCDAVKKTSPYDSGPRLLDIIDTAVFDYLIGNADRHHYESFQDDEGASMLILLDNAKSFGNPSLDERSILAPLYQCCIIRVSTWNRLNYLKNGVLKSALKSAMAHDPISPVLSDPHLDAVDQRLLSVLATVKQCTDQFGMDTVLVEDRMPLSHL
The next test deals with NLK (Homo sapiens, UniProt Q9UBE8). In words: KiNativ, OCI cells live cell. It counts as cell-based. The settings on record: 2 h, labeling site Lys2, peptide […].

T3 sequence (Q96GD4 whole entry): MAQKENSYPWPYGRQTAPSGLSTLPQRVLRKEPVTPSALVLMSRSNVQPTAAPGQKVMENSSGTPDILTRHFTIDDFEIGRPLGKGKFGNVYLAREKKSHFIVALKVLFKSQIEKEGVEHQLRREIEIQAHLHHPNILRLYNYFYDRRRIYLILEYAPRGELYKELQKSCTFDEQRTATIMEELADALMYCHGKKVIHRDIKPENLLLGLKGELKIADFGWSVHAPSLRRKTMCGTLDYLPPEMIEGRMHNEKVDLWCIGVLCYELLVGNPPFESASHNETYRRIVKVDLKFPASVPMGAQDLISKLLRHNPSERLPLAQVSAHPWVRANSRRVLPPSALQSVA

In the case of `CN1CCN(Cc2ccc(Nc3ncc(Cl)c(Nc4ccccc4S(=O)(=O)N(C)C)n3)cc2)CC1` [TP-0903], the inhibition at 0.1 µM on AGK was -26.9%; on AKT1, -17.1%; against SBK, -0.9%; against CaMK1a (labeling site Lys1, peptide LVAIKCIAK), -6.6%; at CaMK1a (labeling site Lys2, peptide DLKPENLLYYSLDEDSK), -19.1%; on NEK4 it was -12.3%. For the same compound, the inhibition at 0.1 µM against MARK3 is 47%; against MAP2K6 (labeling site Activation Loop, peptide MCDFGISGYLVDSVAKTIDAGCKPYMAPER), 8.8%; against MAP2K6 (labeling site Lys1, peptide HVPSGQIMAVKR) it was 28%; on MAP2K6 (labeling site Lys2, peptide DVKPSNVLINALGQVK), 18.6%; against ZAK, 5.3%; on PI4KA it was -14.6%. Also, the inhibition at 0.1 µM is 37.9% on NEK9; 39.6% at NEK9 (OCI cells, live cell, labeling site Activation Loop, peptide LGDYGLAKK, read-out: Inhibition); 40.8% at NEK9 (OCI cells, live cell, labeling site Lys1, peptide RTEDDSLVVWKEVDLTR, read-out: Inhibition); 7.4% against FAM20B; -23% against NLK. Further, in the test on SRPK1, SRPK2, the Inhibition was -36.9%. Also, the pKd is 9.10 on FLT3 ITD/D835V, > 8.30 at CDK7 and > 8.30 at AURKB. For the same compound, the Apoptosis entry with OCI-AML3 cells is “significant apoptosis”.
